This experiment has as its target T1, human IKK-2 (rhIKK-2 homodimer) (Homo sapiens, UniProt O14920).
T1 construct: FLAG (DYKDDDDKD) (C); made in house; host or cells: insect cells (baculovirus, pFastBac)
T1 sequence (O14920 1-756): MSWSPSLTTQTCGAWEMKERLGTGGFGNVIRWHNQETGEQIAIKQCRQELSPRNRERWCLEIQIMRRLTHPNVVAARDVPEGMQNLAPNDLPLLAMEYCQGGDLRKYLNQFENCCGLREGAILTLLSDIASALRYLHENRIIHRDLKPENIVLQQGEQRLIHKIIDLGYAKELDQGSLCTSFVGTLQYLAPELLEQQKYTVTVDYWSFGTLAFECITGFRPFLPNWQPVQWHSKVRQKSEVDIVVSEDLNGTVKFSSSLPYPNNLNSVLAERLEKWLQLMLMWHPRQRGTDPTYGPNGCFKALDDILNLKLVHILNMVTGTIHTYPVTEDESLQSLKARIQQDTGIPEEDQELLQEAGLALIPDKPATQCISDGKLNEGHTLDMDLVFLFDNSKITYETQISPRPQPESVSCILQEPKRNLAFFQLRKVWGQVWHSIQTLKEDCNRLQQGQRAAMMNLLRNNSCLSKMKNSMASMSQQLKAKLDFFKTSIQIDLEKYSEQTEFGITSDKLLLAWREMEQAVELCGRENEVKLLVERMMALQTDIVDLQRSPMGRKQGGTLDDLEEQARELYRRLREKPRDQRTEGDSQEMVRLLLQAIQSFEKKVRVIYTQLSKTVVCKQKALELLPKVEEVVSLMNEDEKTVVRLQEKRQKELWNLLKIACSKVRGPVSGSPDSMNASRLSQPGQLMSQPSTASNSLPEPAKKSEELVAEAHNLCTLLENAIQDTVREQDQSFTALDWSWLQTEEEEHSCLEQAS
As to the kind of experiment: IKK-2 Resin Enzyme Assay (Human IKK-2 Enzyme Assay). The class given is biochemical. The note with it: human IKK-2, resin enzyme assay; read-out: IC50 (μM) hIKK-2. In a few lines: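 C-terminally FLAG-tagged human IKK-2 homodimer, baculovirus-expressed in insect cells and anti-FLAG purified. Reaction mix: 5 μM biotinylated IκBα peptide (Ser32/Ser36 region), 1 μM ATP with [γ-33P]ATP, 2 mM MgCl2, 2 mM MnCl2, 10 mM NaF, 1 mM DTT, 25 mM HEPES pH 7.6. Incubated 30 min at 25 °C; IC50 derived.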

Some results are limits rather than exact numbers.

Regarding `NC(=O)Nc1cn(-c2ccc(-c3ccc(C(=O)O)cc3)cc2)nc1C(N)=O` [Example 142, 4′-{3-(aminocarbonyl)-4-[(aminocarbonyl)amino]-1H-pyrazol-1-yl}-1,1′-biphenyl-4-carboxylic acid], the half-inhibitory concentration (IC50) was 0.17 µM.

`NC(=O)Nc1nn(-c2ccc(-c3cc(Cl)ccc3Cl)cc2)cc1C(N)=O` [Example 135]: the IC50 came out at 1.66 µM.

On to `NC(=O)Nc1cn(-c2cccc(-c3ccccc3)c2)nc1C(N)=O` [Example 339, 4-[(aminocarbonyl)amino]-1-(1,1′-biphenyl-3-yl)-1H-pyrazole-3-carboxamide], for which the half-inhibitory concentration (IC50) is over 20 µM.

Regarding `NC(=O)Nc1cn(-c2cccc(-c3cccc(C(=O)O)c3)c2)nc1C(N)=O` [Example 73, 3′-{3-(aminocarbonyl)-4-[(aminocarbonyl)amino]-1H-pyrazol-1-yl}-1,1′-biphenyl-3-carboxylic acid], the IC50 was found to be 8.03 µM.

As for `CNC(=O)c1ccc(-c2cccc(-n3cc(NC(N)=O)c(C(N)=O)n3)c2)cc1` [Example 74, 4-[(aminocarbonyl)amino]-1-{4′-[(methylamino)carbonyl]-1,1′-biphenyl-3-yl}-1H-pyrazole-3-carboxamide], the IC50 stood at 0.94 µM.

Regarding `NC(=O)Nc1cn(-c2cccc(-c3cc(Cl)cc(Cl)c3)c2)nc1C(N)=O` [Example 370, 4-[(aminocarbonyl)amino]-1-(3′,5′-dichloro-1,1′-biphenyl-3-yl)-1H-pyrazole-3-carboxamide], the IC50 was over 20 µM.

As for `CCc1cc(Br)ccc1-n1cc(NC(N)=O)c(C(N)=O)n1` [Example 281, 4-[(aminocarbonyl)amino]-1-(4-bromo-2-ethylphenyl)-1H-pyrazole-3-carboxamide], the IC50 was found to be 10.6 µM.

As to `NC(=O)Nc1nn(-c2ccc(-c3ccc(C(F)(F)F)cc3)cc2)cc1C(N)=O` [Example 132], the half-inhibitory concentration (IC50) was 18.8 µM.

As for `Cc1cc(-c2cccc(-n3cc(NC(N)=O)c(C(N)=O)n3)c2)ccn1` [Example 63, 4-[(aminocarbonyl)amino]-1-[3-(2-methylpyridin-4-yl)phenyl]-1H-pyrazole-3-carboxamide], the half-inhibitory concentration (IC50) worked out at 0.59 µM.

Consider `NC(=O)Nc1cn(-c2cccc(/C=C/c3ccccc3)c2)nc1C(N)=O` [Example 67, 4-[(aminocarbonyl)amino]-1-{3-[(E)-2-phenylvinyl]phenyl}-1H-pyrazole-3-carboxamide], for which the concentration for half-maximal inhibition (IC50) is 5.24 µM.

Take `CCNC(=O)COc1cccc(-c2ccc(-n3cc(NC(N)=O)c(C(N)=O)n3)cc2)c1` [Example 335, 4-[(aminocarbonyl)amino]-1-{3′-[2-(ethylamino)-2-oxoethoxy]-1, 1′-biphenyl-4-yl}-1H-pyrazole-3-carboxamide]: the IC50 was determined as 0.21 µM.

`NC(=O)Nc1cn(-c2cccc(-c3ccccc3C(F)(F)F)c2)nc1C(N)=O` [Example 366, 4-[(aminocarbonyl)amino]-1-[2′-(trifluoromeethyl)-1,1′-biphenyl-3-yl]-1H-pyrazole-3-carboxamide]: the concentration for half-maximal inhibition (IC50) was over 20 µM.

Turning to `NC(=O)Nc1cn(-c2ccc(-c3ccccc3CCC(=O)O)cc2)nc1C(N)=O` [Example 379, 3-(4′-{3-(aminocarbonyl)-4-[(aminocarbonyl)amino]-1H-pyrazol-1-yl}-1,1′-biphenyl-2-yl)propanoic acid], the half-maximal inhibitory concentration (IC50) was found to be 1.95 µM.

In the case of `N#Cc1cccc(-c2ccc(-n3cc(NC(N)=O)c(C(N)=O)n3)cc2)c1` [Example 104, 4-[(aminocarbonyl)amino]-1-(3′-cyano-1,1′-biphenyl-4-yl)-1H-pyrazole-3-carboxamide], the IC50 came to 0.677 µM.

Turning to `NC(=O)Nc1nn(-c2ccc(-c3ccc(F)c(F)c3)cc2)cc1C(N)=O` [Example 114], the IC50 stood at 3.19 µM.

As to `NC(=O)Nc1cn(-c2cccc([S+]([O-])c3ccccc3F)c2)nc1C(N)=O` (centres unmarked) [Example 202, 1-(1-(3-(2-fluorophenylsulfinyl)phenyl)-3-carbamoyl-1H-pyrazol-4-yl)urea], the concentration for half-maximal inhibition (IC50) was found to be 5.97 µM.

In the case of `CCN(CC)C(=O)CCc1cccc(-c2ccc(-n3cc(NC(N)=O)c(C(N)=O)n3)cc2)c1` [Example 382, 4-[(aminocarbonyl)amino]-1-{3′-[3-(diethylamino)-3-oxopropyl]-1,1′-biphenyl-4-yl}-1H-pyrazole-3-carboxamide], the IC50 is 0.9 µM.

In the case of `NC(=O)Nc1cn(-c2cccc(-c3ccsc3)c2)nc1C(N)=O` [Example 43, 4-[(aminocarbonyl)amino]-1-(3-thien-3-ylphenyl)-1H-pyrazole-3-carboxamide], the IC50 was found to be 8.54 µM.

Consider `CC(C)c1ccc(-c2cccc(-n3cc(NC(N)=O)c(C(N)=O)n3)c2)cc1` [Example 353, 4-[(aminocarbonyl)amino]-1-(4′-isopropyl-1,1′-biphenyl-3-yl)-1H-pyrazole-3-carboxamide], for which the half-maximal inhibitory concentration (IC50) was over 20 µM.

For the compound `CCOc1cc(-n2cc(NC(N)=O)c(C(N)=O)n2)ccc1-c1cccc(O)c1` [Example 230, 4-[(aminocarbonyl)amino]-1-(2-ethoxy-3′-hydroxy-1,1′-biphenyl-4-yl)-1H-pyrazole-3-carboxamide], the IC50 is 2.02 µM.

For `Cc1cc(-n2cc(NC(N)=O)c(C(N)=O)n2)ccc1Cl` [Example 302, 4-[(aminocarbonyl)amino]-1-(4-chloro-3-methylphenyl)-1H-pyrazole-3-carboxamide], the IC50 was found to be 0.229 µM.

Consider `Cc1cc(-n2cc(NC(N)=O)c(C(N)=O)n2)ccc1S(=O)(=O)c1ccc(F)cc1` [Example 298, 1-[4-(4-fluoro-benzenesulfonyl)-3-methyl-phenyl]-4-ureido-1H-pyrazole-3-carboxylic acid amide], for which the IC50 was 0.724 µM.

Consider `CC(C)c1ccc(-c2ccc(-n3cc(C(N)=O)c(NC(N)=O)n3)cc2)cc1` [Example 117], for which the IC50 was over 20 µM.

Consider `CCCCc1ccc(-c2ccc(-n3cc(C(N)=O)c(NC(N)=O)n3)cc2)cc1` [Example 128], for which the IC50 is over 20 µM.

For `NCc1cccc(-c2ccc(-n3cc(NC(N)=O)c(C(N)=O)n3)cc2)c1` [Example 28, 4-[(aminocarbonyl)amino]-1-[3′-(aminomethyl)-1,1′-biphenyl-4-yl]-1H-pyrazole-3-carboxamide], the concentration for half-maximal inhibition (IC50) amounted to 2.79 µM.

For the compound `NC(=O)Nc1cn(-c2ccc(Sc3ccc(O)cc3)cc2)nc1C(N)=O` [Example 199, 1-(1-(4-(4-hydroxyphenylthio)phenyl)-3-carbamoyl-1H-pyrazol-4-yl)urea], the IC50 is 6.56 µM.

Consider `NC(=O)Nc1nn(-c2ccc(-c3ccc(C4CCCCC4)cc3)cc2)cc1C(N)=O` [Example 140], for which the IC50 is over 20 µM.

Turning to `Cc1ccc(-c2cccc(-n3cc(NC(N)=O)c(C(N)=O)n3)c2)cc1N` [Example 77, 4-[(aminocarbonyl)amino]-1-(3′-amino-4′-methyl-1,1′-biphenyl-3-yl)-1H-pyrazole-3-carboxamide], the 50% inhibitory concentration (IC50) was determined as 0.8 µM.

`N#C/C=C/c1cccc(-c2ccc(-n3cc(NC(N)=O)c(C(N)=O)n3)cc2)c1` [Example 32, 4-[(aminocarbonyl)amino]-1-{3′-[(E)-2-cyanovinyl]-1,1′-biphenyl-4-yl}-1H-pyrazole-3-carboxamide]: the 50% inhibitory concentration (IC50) came out at 1.16 µM.

Consider `NC(=O)NC(=O)Nc1cn(-c2ccc(Br)c(C(F)(F)F)c2)nc1C(N)=O` [Example 2, 4-({[(aminocarbonyl)amino]carbonyl}amino)-1-[4-bromo-3-(trifluoromethyl)phenyl]-1H-pyrazole-3-carboxamide], for which the concentration for half-maximal inhibition (IC50) turned out to be 10.7 µM.

With `CCCNC(=O)c1ccc(-c2ccc(-n3cc(NC(N)=O)c(C(N)=O)n3)cc2)cc1` [Example 146, 4-[(aminocarbonyl)amino]-1-{4′-[(propylamino)carbonyl]-1,1′-biphenyl-4-yl}-1H-pyrazole-3-carboxamide], the half-inhibitory concentration (IC50) was 6.28 µM.

Turning to `NC(=O)Nc1cn(-c2ccc(-c3ccc(O)cc3)cc2)nc1C(N)=O` [Example 36, 4-[(aminocarbonyl)amino]-1-(4′-hydroxy-1,1′-biphenyl-4-yl)-1H-pyrazole-3-carboxamide], the IC50 amounted to 1.63 µM.

As for `NC(=O)Nc1cn(-c2ccc(S(N)(=O)=O)cc2)nc1C(N)=O` [Example 301, 4-[(aminocarbonyl)amino]-1-[4-(aminosulfonyl)phenyl]-1H-pyrazole-3-carboxamide], the 50% inhibitory concentration (IC50) came to 0.123 µM.

As for `COc1ccc(Cl)cc1-c1ccc(-n2cc(NC(N)=O)c(C(N)=O)n2)cc1` [Example 129, 4-[(aminocarbonyl)amino]-1-(5′-chloro-2′-methoxy-1,1′-biphenyl-4-yl)-1H-pyrazole-3-carboxamide], the IC50 amounted to 1.82 µM.

For the compound `NC(=O)Nc1cn(-c2cccc(-c3ccc(Cl)cc3Cl)c2)nc1C(N)=O` [Example 369, 4-[(aminocarbonyl)amino]-1-(2′,4′-dichloro-1,1′-biphenyl-3-yl)-1H-pyrazole-3-carboxamide], the IC50 came to 16.7 µM.

A word on the IC50: it is the midpoint of a concentration-inhibition curve.

The values above are taken from US20050197338A1, “Substituted pyrazole urea compounds for the treatment of inflammation” (priority 2003, published 2005).
